# Laboratory results as given in patent US8470776B2, “Conjugates of disorazoles and their derivatives with cell-binding molecules, novel disorazole derivatives, processes of manufacturing and uses thereof” (Aeterna Zentaris GmbH, priority 2006, dated 2013).
# What was measured:
# [1] = system: various human tumor cell lines; conditions: nano- and picomolar concentrations; WO 2004/024149; cited from earlier work
# [2] = system: ovarian adenocarcinoma cell line SKOV-3; assay: cells; type: cell-based, human; conditions: for IC50 SKOV-3: XTT, 45 h incubation
# Source text: (§1) Selected compounds of the invention were investigated for their antiproliferative activity in a proliferation test on established tumor cell lines.
# (§2) The test used determines the cellular dehydrogenase activity and makes possible a determination of the cell vitality and indirectly the cell count.
# (§3) The cell lines used are the human cervical carcinoma cell line KB/HeLa (ATCC CCL17), the ovarian adenocarcinoma cell line SKOV-3 (ATCC HTB77), the human glioblastoma cell line SF-268 (NCI-503138) and the lung carcinoma cell line NCI-H460 (NCI-503473). In addition, for the investigation of the cell cycle-specific action of the compounds of the invention, an RKOp27 cell system was used (Schmidt M et al. Oncogene 2000, 19(20): 2423-2429). RKO is a human colon carcinoma cell line (ATCC CRL-2577), in which the cell cycle inhibitor p27^kip1 induced by means of the ecdysone expression system is expressed and can be led to a cell cycle arrest specifically in […]. A nonspecifically acting substance inhibits the proliferation independently of whether the RKO cell is or is not arrested in G1 or G2. Cell cycle-specific substances such as, for example, tubulin inhibitors are, however, only cytotoxic if cells are not arrested and the cell cycle is passed through.
# (§4) The adherently growing tumor cell lines KB/HeLa, SKOV-3, SF-268 and NCI-H460 were cultured under standard conditions in an incubator at 37° C., 5% CO2 and 95% atmospheric humidity. On experimental day 1, the cells are detached using trypsin/EDTA and pelleted by centrifugation. Subsequently, the cell pellet is resuspended in the respective culture medium at the corresponding cell count and reacted in a 96-well microtiter plate. The plates are then cultured overnight in the incubator. The test substances are prepared as 1 mg/ml stock solutions in DMSO and diluted to the appropriate concentrations on experimental day 2 using culture medium. The substances in culture medium are then added to the cells and incubated in the incubator for 45 h. As a control, cells which are not treated with test substance are used. For the XTT assay, 1 mg/ml of XTT (sodium 3′-[1-(phenylaminocarbonyl)-3,4-tetrazolium]-bis(4-methoxy-6-nitro)benzenesulfonic acid) is dissolved in RPMI-1640 medium without Phenol Red. Additionally, a 0.383 mg/ml PMS (N-methyldibenzopyrazine methylsulfate) solution in phosphate-buffered saline solution (PBS) is prepared. On experimental day 4, 75 μl/well of XTT-PMS mixture is pipetted onto the cell plates which in the meantime have been incubated with the test substances for 45 h. For this, shortly before use, the XTT solution is mixed with the PMS solution in the ratio 50:1 (vol:vol). The cell plates are then incubated in the incubator for a further 3 h and the optical density (OD490 nm) is determined in a photometer. By means of the OD490 nm determined, the percentage inhibition is calculated relative to the control and plotted semilogarithmically in the form of a concentration-action curve. The IC50 is calculated by means of a regression analysis from the concentration-action curve using the program Graphpad Prism.
# [3] = system: lung carcinoma cell line NCI-H460; assay: cells; type: cell-based, human; conditions: for IC50 NCI-H460: XTT, 45 h incubation
# Source text: as §1, §2, §3, §4
# [4] = system: human cervical carcinoma cell line KB/HeLa; assay: cells; type: cell-based; conditions: for IC50 KB/HELA: XTT, 45 h incubation
# Source text: as §1, §2, §3, §4
# [5] = system: human glioblastoma cell line SF-268; assay: cells; type: cell-based; conditions: for IC50 SF-268: XTT, 45 h incubation
# Source text: as §1, §2, §3, §4
# [6] = system: GnRH receptor positive, human ovarian carcinoma cell line OVCAR-3; assay: OVCAR-3 tumors in nude mice, single i.v. dose; type: in vivo, CD 1 nu/nu nude mice; conditions: for Average tumor size day 18: once on day 0, tail vein; for Average tumor size day 0: tail vein, day 0 (baseline before dosing)
# Protocol: 30 CD 1 nu/nu nude mice were inoculated subcutaneously with the GnRH receptor positive, human ovarian carcinoma cell line OVCAR-3 (5 million cells per animal). The experiment was started after formation of solid tumors. 5 animals per dose group were used.
# On day 0 of the experiment, the individual tumor volume was determined by palpation and set to 100%. Test compounds were administered subsequently on day 0 of the experiment by injection into the tail vein of the test animals.
# A standard volume of 10 ml of 0.9% saline per kg (200 μl per 20 g mouse) containing the test compound in the required concentration was administered once only on day 0 of the experiment.
# The tumor size was determined again by palpation on day 18 of the experiment.
# In the case of appearance of additional tumors, the volumes were added.
# [7] = system: RKOp27 cells (human colon carcinoma cell line RKO), p27kip1 not induced; assay: cells; type: cell-based; conditions: for IC50 RKOp27: without expression of p27kip1, XTT, 45 h
# Source text: as §3, §4
# (§5) The assay is carried out in 96-well plates. […] By comparison of the activity on induced and noninduced cells, conclusions on the mechanism of action (cell cycle specificity) of the therapeutics can be drawn. […] cells are inoculated in approximately three-fold higher cell count, since division no longer takes place during the assay in comparison with uninduced cells (20000 cells/well induced, 6250 cells/well not induced). The controls are untreated cells (+/−induction). The induction is carried out with 3 μM muristerone A. On the 1st day, the cells are exposed (+/−muristerone A) and incubated at 37° C. for 24 h. On day 2, the test substance is added (control DMSO) and incubation is continued at 37° C. for a further 45 h before a standard XTT assay is carried out.
# [8] = system: RKOp27 cells (human colon carcinoma cell line RKO), p27kip1 induced; assay: cells; type: cell-based; conditions: for IC50 RKOp27 induced: p27kip1 induced with 3 μM muristerone A, XTT, 45 h
# Source text: as §3, §4, §5
# [9] = system: paclitaxel- and vindesine-resistant cell lines; conditions: WO 2004/024149; cited from earlier work
# [10] = system: hGnRH-R negative cell line LTK−; assay: GnRH-receptor dependent proliferation assay, LTK-; type: cell-based; conditions: 30 min exposure, vital cells vs untreated control = 100%
# Protocol: (§6) The dose-dependent receptor-mediated inhibition of cell proliferation of selected compounds of the invention was investigated.
# (§7) To study these effects a human GnRH receptor (hGnRH-R) positive cell line (5C6; Beckers et al., Eur. J. Biochem. 1995, 231: 535-543) and an hGnRH-R negative cell line (LTK^−; ECACC No. 85011432) was used.
# (§8) Respective cells were exposed to 1 mL culture medium in 24 well multi-titer-plates (MTPs) with a cell number of 15000 cells per well. The cell number is adjusted in such a way that after 5 days of testing the untreated control cells are still in the exponential growth phase.
# (§9) Test compounds are given to the cultured cells after 4 hours of initial growth (adherence) in a volume of 100 μL to yield the final concentrations given in table 2.
# (§10) After 30 min of incubation at 37° C. the entire culture medium is sucked off and the cells are washed twice with culture medium without test compounds. After the washing the cells are placed into an incubator (at 37° C., 5% CO2 and 95% atmospheric humidity) and incubated for further 4 days.
# (§11) For the determination of the cell number after incubation the cells are detached using trypsin/EDTA and centrifuged. The number of vital cells and the total cell number are counted using a Vi-Cell Analyzer (Beckman Coulter).
# (§12) The number of vital cells is analyzed in comparison with untreated control cells (=100%). Only cell groups (respective wells) are considered of which the total cell viability is more than 90%, i.e. inhibition of cell proliferation by unspecific toxicity can be excluded.
# (§13) The proliferation status of untreated control cells after 96 hours is set to 100%.
# [11] = system: human GnRH receptor (hGnRH-R) positive cell line 5C6; assay: GnRH-receptor dependent proliferation assay, 5C6; type: cell-based; conditions: 30 min exposure, vital cells vs untreated control = 100%
# Protocol: as §6, §7, §8, §9, §10, §11, §12, §13
# cell models = conditions: reported in literature; cited from earlier work
# mammalian cells = conditions: Elnakady et al. 2004; cited from earlier work
molecule,measurement,setting,value
disorazole D1,cytotoxic action on various human tumor cell lines,[1],possess cytotoxic action
"C/C=C/C(O)C(C)(C(=O)OC)C1C\C=C/C=C/C=C/c2nc(co2)C(=O)OC(C(C)(C(=O)OC)C(O)/C=C/C)C\C=C/C=C/C=C/c2nc(co2)C(=O)O1 (centres unmarked) [disorazol Z, disorazole Z, reference compound]",IC50,"[2]; Homo sapiens, SK-OV-3, 45 h, read-out: IC50 SKOV-3",0.504 ng/mL
same,IC50,"[3]; Homo sapiens, NCI-H460, 45 h, read-out: IC50 NCI-H460",0.67 ng/mL
same,IC50,"[4]; Homo sapiens, HeLa, 45 h, read-out: IC50 KB/HELA",1.01 ng/mL
same,IC50,"[5]; Homo sapiens, SF-268, 45 h, read-out: IC50 SF-268",1.28 ng/mL
same,Average tumor size day 18,"[6]; 0.16 mg/kg = 215 nmol/kg, day 18",146
same,Average tumor size day 0,[6]; 0.16 mg/kg = 215 nmol/kg,92
same,suppression of tumor growth (in words),"[6]; OVCAR-3 tumors, single i.v. dose, day 18",moderate suppression of tumor growth
same,IC50,"[7]; Homo sapiens, RKOp27, 45 h, read-out: IC50 RKOp27",0.659 ng/mL
same,IC50,"[8]; Homo sapiens, RKOp27, 45 h, read-out: IC50 RKOp27 induced",> 3160 ng/mL
"C/C=C/C(O)C(C)(C)C1C/C=C\C2OC2C=CC(OC)Cc2nc(co2)C(=O)OC(C(C)(C)C(O)/C=C/C)C/C=C\C2OC2/C=C\C=Cc2nc(co2)C(=O)O1 (centres unmarked) [disorazol E1, disorazole E1, reference compound]",IC50 SKOV-3,[2],0.074 ng/mL
same,IC50 NCI-H460,[3],0.065 ng/mL
same,activity against paclitaxel- and vindesine-resistant cell lines,[9],active
same,IC50 KB/HELA,[4],0.17 ng/mL
same,IC50 SF-268,[5],0.474 ng/mL
same,cytotoxic action on various human tumor cell lines,[1],possess cytotoxic action
same,IC50 RKOp27,[7],0.17 ng/mL
same,IC50 RKOp27 induced,[8],>3160 ng/mL
"C/C=C/C(O)C(C)(C(=O)OC)C1C\C=C/C=C/C=C/c2nc(co2)C(=O)OC(C(C)(C(=O)OC)C(/C=C/C)OC(=O)CCC(=O)NCCCC[C@H](NC(=O)[C@H](Cc2ccc(O)cc2)NC(=O)[C@H](CO)NC(=O)[C@H](Cc2c[nH]c3ccccc23)NC(=O)[C@H](Cc2cnc[nH]2)NC(=O)[C@@H]2CCC(=O)N2)C(=O)N[C@@H](CC(C)C)C(=O)N[C@@H](CCCNC(=N)N)C(=O)N2CCC[C@H]2C(=O)NCC(N)=O)C\C=C/C=C/C=C/c2nc(co2)C(=O)O1 (stereo partly drawn) [compound 16, Disorazole Z Mono Hemi Succinyl [D-Lys^6]LHRH]",IC50 SKOV-3,[2],7.683 ng/mL
same,IC50 NCI-H460,[3],9.235 ng/mL
same,"proliferation status after 96 hours, cell line LTK−, 0.1 nM",[10]; 0.1 nM,101.8%
same,"proliferation status after 96 hours, cell line LTK−, 1 nM",[10]; 1 nM,105.8%
same,"proliferation status after 96 hours, cell line LTK−, 10 nM",[10]; 10 nM,103.4%
same,"proliferation status after 96 hours, cell line LTK−, 100 nM",[10]; 100 nM,61.7%
same,IC50 KB/HELA,[4],18.92 ng/mL
same,IC50 SF-268,[5],17.8 ng/mL
same,Average tumor size day 18,"[6]; 0.1 mg/kg = 43 nmol/kg, day 18",76
same,Average tumor size day 0,[6]; 0.1 mg/kg = 43 nmol/kg,79
same,Average tumor size day 18,"[6]; 0.5 mg/kg = 215 nmol/kg, day 18",40
same,Average tumor size day 0,[6]; 0.5 mg/kg = 215 nmol/kg,74
same,"proliferation status after 96 hours, cell line 5C6, 0.1 nM",[11]; 0.1 nM,83.8%
same,"proliferation status after 96 hours, cell line 5C6, 1 nM",[11]; 1 nM,80.9%
same,"proliferation status after 96 hours, cell line 5C6, 10 nM",[11]; 10 nM,54.1%
same,"proliferation status after 96 hours, cell line 5C6, 100 nM",[11]; 100 nM,21.9%
same,IC50 RKOp27,[7],5.18 ng/mL
same,IC50 RKOp27 induced,[8],>3160 ng/mL
"C/C=C/[C@H](O)C(C)(C)[C@@H]1C\C=C/C=C\C=C\[C@H](OC)Cc2nc(co2)C(=O)O[C@H](C(C)(C)[C@@H](O)/C=C/C)C/C=C\[C@H]2O[C@H]2/C=C/C=C\c2nc(co2)C(=O)O1 [disorazol A1, disorazole A1, reference compound]",antiproliferative action in cell models,cell models,possesses an antiproliferative action
same,IC50 SKOV-3,[2],0.027 ng/mL
same,IC50 NCI-H460,[3],0.022 ng/mL
same,IC50 KB/HELA,[4],0.049 ng/mL
same,IC50 SF-268,[5],0.125 ng/mL
same,IC50 RKOp27,[7],0.049 ng/mL
same,IC50 RKOp27 induced,[8],>3160 ng/mL
same,induction of apoptosis in mammalian cells,mammalian cells,induces apoptosis
